What all share (assay type): in vivo, human
Experiment [1] relates to activity of autonomic nerves. Description: Heart rate variability power spectrum after smoking, double blind crossover study. Conditions: for level of LF/HF change: 3 soft capsules each containing 10 mg of sesamin, nine male university students. How it is done: For nine male general university students, a test was carried out by a double blind, crossover study. Specifically, 3 soft capsules each containing 10 mg of sesamin and 3 placebo capsules were ingested, and the effect of the ingestion of the capsules on the activity of autonomic nerves was examined by a heart rate variability power spectrum method according to the method by Ue, H. et al. (Ue, H. et al., Ann. Noninvasive Electrocardiol., 5: 336-345 (2000)). After the ingestion of each sample, the students smoked one cigarette over a period of 4 min. Just before and after smoking, 10 min after smoking, and 30 min after smoking, electrocardiograms were taken, and sampling was carried out at 1024 Hz using 14-bit A/D conversion. Heart rate variability obtained from the electrocardiograms were processed by fast Fourier transform for frequency analysis to provide a heart rate variability power spectrum. In order to separate and quantify the heart rate variability spectrum, spectral integral values of two frequency bands (0.04 to 0.15 Hz and 0.15 to 0.4 Hz) are mainly determined. The spectral integral value of the low frequency (0.04 to 0.15 Hz) band was used as a measure of the activity of the sympathetic nerves and the activity of the parasympathetic nerves, while the spectral integral value of the high frequency (0.15 to 0.4 Hz) band was used as a measure of the activity of the parasympathetic nerves. Further, the value obtained by dividing the spectral integral value of the low frequency band by the spectral integral value of the high frequency band, that is, LF/HF, was used as a measure of the balance between the activity of the sympathetic nerves and the activity of the parasympathetic nerves (Akselrod S et al., Science 213: 220-222 (1981) and Moritani T et al., J sportmed Sci. 7: 31-39 (1993)). Further, the heart depolarization-repolarizaton time was measured by the QT interval.

A further experiment relates to QT interval. Description: QT interval (heart depolarization-repolarization time) after smoking. As to conditions: FIG. 2; 3 x 10 mg sesamin capsules; placebo group significant prolongation (p<0.01). As to the method: For nine male general university students, a test was carried out by a double blind, crossover study. Specifically, 3 soft capsules each containing 10 mg of sesamin and 3 placebo capsules were ingested, and the effect of the ingestion of the capsules on the activity of autonomic nerves was examined by a heart rate variability power spectrum method according to the method by Ue, H. et al. (Ue, H. et al., Ann. Noninvasive Electrocardiol., 5: 336-345 (2000)). After the ingestion of each sample, the students smoked one cigarette over a period of 4 min. Just before and after smoking, 10 min after smoking, and 30 min after smoking, electrocardiograms were taken, and sampling was carried out at 1024 Hz using 14-bit A/D conversion. Heart rate variability obtained from the electrocardiograms were processed by fast Fourier transform for frequency analysis to provide a heart rate variability power spectrum. In order to separate and quantify the heart rate variability spectrum, spectral integral values of two frequency bands (0.04 to 0.15 Hz and 0.15 to 0.4 Hz) are mainly determined. […] Further, the heart depolarization-repolarizaton time was measured by the QT interval.

In experiment [2] the test system is activity of autonomic nerves. Kind of experiment: Heart rate variability power spectral analysis in women with symptoms of climacteric disorder, double-blind parallel comparison. As to conditions: 4 weeks, 3 soft capsules each containing 10 mg of sesamin; supine position; FIG. 3. How it is done: For 14 women who display symptoms of climacteric disorder, a test was carried out by double-blind parallel between-groups comparison. The subjects were randomly divided into two groups. Over a period of 4 weeks, 3 soft capsules each containing 10 mg of sesamin were ingested consecutively for one of the groups, and 3 placebo capsules were ingested consecutively for the other group. Before and after the ingestion of the sample, electrocardiograms were taken in a supine position, and the activity of the autonomic nerves was examined by heart rate variability power spectral analysis.

As to `c1cc2c(cc1[C@H]1OC[C@H]3[C@@H]1CO[C@@H]3c1ccc3c(c1)OCO3)OCO2` [sesamin], in experiment [1] (30 min after smoking), the “level of LF/HF change” value is on record as −0.239. Also, in experiment [1] (just after smoking), the “level of LF/HF change” value is reported as “+2.87”. In addition, the “lowering in the activity of the parasympathetic nerves caused by smoking” value in experiment [1] (vs placebo, p<0.05, FIG. 1, 3 x 10 mg sesamin capsules) was “significantly inhibited”. Moreover, the “prolongation of QT interval caused by smoking” value in the experiment with QT interval was “no significant prolongation”. In addition, in experiment [2], the “overall autonomic nerve activity” value is “increased”, the parasympathetic nerve activity result is on record as “significantly increased” and the sympathetic nerve activity result was “increased”.
